# Measurements from article PMC4441592 (Neuron, 2015).
# Peptide text beside a SMILES is read from it.
# Experiments:
# KOR [1] = biological target: T1, KOR (Homo sapiens, UniProt P41145); experiment: cell-based
# KORD (D138N hKOR) = KORD (D138N hKOR) (Homo sapiens, UniProt P41145, D138N); experiment: cell-based; details: EC50(nM)
# KORD = KORD (Homo sapiens, UniProt P41145, D138N); experiment: Radioligand competition binding, KORD
# KOR [2] = biological target: T1, KOR; experiment: [3H]-diprenorphine radioligand competition binding, WT KOR
# [3] = tested on: AGRP-ires-cre mice, ARC^AgRP neurons with hM3Dq and KORD; experiment: Feeding study with multiplexed KOR and hM3Dq DREADD; format: in vivo; details: hM3Dq and KORD in ARC^AgRP neurons; CNO 1mg/kg i.p.
# [4] = tested on: VGAT-ires-Cre mice, VTA/SN^VGAT neurons; experiment: Locomotor activity; format: in vivo
SMILES,Emax (KOR [1]) [%],EC50 (KOR [1]; EC50(nM)) [nM],EC50 (KOR [1]; pEC50 ± SEM) [nM],EC50 (KORD (D138N hKOR)) [nM],also measured
CC(C)C[C@H](NC(=O)[C@H](Cc1ccccc1)NC(=O)CNC(=O)CNC(=O)[C@@H](N)Cc1ccc(O)cc1)C(=O)N[C@@H](CCCNC(=N)N)C(=O)N[C@@H](CCCNC(=N)N)C(=O)N[C@@H](CCC(N)=O)C(=O)N[C@@H](Cc1ccccc1)C(=O)N[C@@H](CCCCN)C(=O)N[C@H](C(=O)N[C@H](C(=O)N[C@H](C(=O)O)[C@@H](C)O)C(C)C)C(C)C [Dynorphin B(1-13)],100,,,,
CSCC[C@H](NC(=O)[C@H](Cc1ccccc1)NC(=O)CNC(=O)CNC(=O)[C@@H](N)Cc1ccc(O)cc1)C(=O)N[C@@H](CCCNC(=N)N)C(=O)N[C@@H](CCCNC(=N)N)C(=O)N[C@H](C(=O)NCC(=O)N[C@@H](CCCNC(=N)N)C(=O)N1CCC[C@H]1C(=O)N[C@@H](CCC(=O)O)C(=O)N[C@@H](Cc1c[nH]c2ccccc12)C(=O)N[C@@H](Cc1c[nH]c2ccccc12)C(=O)N[C@@H](CCSC)C(=O)N[C@@H](CC(=O)O)C(=O)N[C@@H](Cc1ccc(O)cc1)C(=O)N[C@@H](CCC(N)=O)C(=O)N[C@@H](CCCNC(=N)N)C(=O)N[C@@H](Cc1ccc(O)cc1)C(=O)NCC(=O)NCC(=O)N[C@@H](Cc1ccccc1)C(=O)N[C@@H](CC(C)C)C(=O)O)C(C)C [Peptide E] (H-YGGFMRRVGRPEWWMDYQRYGGFL-OH),95,65,66.1,> 10000,
CC[C@H](C)[C@H](NC(=O)[C@H](CCCNC(=N)N)NC(=O)[C@H](CCCNC(=N)N)NC(=O)[C@H](CC(C)C)NC(=O)[C@H](Cc1ccccc1)NC(=O)CNC(=O)CNC(=O)[C@@H](N)Cc1ccc(O)cc1)C(=O)O [Dynorphin A(1-8)],94,,,,
CSCC[C@H](NC(=O)[C@H](Cc1ccccc1)NC(=O)CNC(=O)CNC(=O)[C@@H](N)Cc1ccc(O)cc1)C(=O)N[C@@H](CCCNC(=N)N)C(=O)N[C@@H](CCCNC(=N)N)C(=O)N[C@H](C(=O)NCC(=O)N[C@@H](CCCNC(=N)N)C(=O)N1CCC[C@H]1C(=O)N[C@@H](CCC(=O)O)C(=O)N[C@@H](Cc1c[nH]c2ccccc12)C(=O)N[C@@H](Cc1c[nH]c2ccccc12)C(=O)N[C@@H](CCSC)C(=O)N[C@@H](CC(=O)O)C(=O)N[C@@H](Cc1ccc(O)cc1)C(=O)N[C@@H](CCC(N)=O)C(=O)N[C@@H](CCCNC(=N)N)C(=O)N[C@@H](Cc1ccc(O)cc1)C(=O)NCC(=O)O)C(C)C [BAM 22] (H-YGGFMRRVGRPEWWMDYQRYG-OH),95,93,93.3,> 10000,
CSCC[C@H](NC(=O)[C@H](Cc1ccccc1)NC(=O)CNC(=O)CNC(=O)[C@@H](N)Cc1ccc(O)cc1)C(=O)O [Met-enkephalin],79,,,,
CC[C@H](C)[C@H](NC(=O)[C@H](C)NC(=O)[C@H](CC(N)=O)NC(=O)[C@H](CCCCN)NC(=O)[C@H](Cc1ccccc1)NC(=O)[C@H](CC(C)C)NC(=O)[C@@H](NC(=O)[C@@H](NC(=O)[C@H](CC(C)C)NC(=O)[C@@H]1CCCN1C(=O)[C@@H](NC(=O)[C@H](CCC(N)=O)NC(=O)[C@H](CO)NC(=O)[C@H](CCCCN)NC(=O)[C@H](CCC(=O)O)NC(=O)[C@H](CO)NC(=O)[C@@H](NC(=O)[C@H](CCSC)NC(=O)[C@H](Cc1ccccc1)NC(=O)CNC(=O)CNC(=O)[C@@H](N)Cc1ccc(O)cc1)[C@@H](C)O)[C@@H](C)O)C(C)C)[C@@H](C)O)C(=O)N[C@H](C(=O)N[C@@H](CCCCN)C(=O)N[C@@H](CC(N)=O)C(=O)N[C@@H](C)C(=O)N[C@@H](Cc1ccc(O)cc1)C(=O)N[C@@H](CCCCN)C(=O)N[C@@H](CCCCN)C(=O)NCC(=O)N[C@@H](CCC(=O)O)C(=O)O)[C@@H](C)CC [β-Endorphin (1-31)],100,706,708,> 10000,
CC(C)C[C@H](NC(=O)[C@H](Cc1ccccc1)NC(=O)CNC(=O)CNC(=O)[C@@H](N)Cc1ccc(O)cc1)C(=O)N[C@@H](CCCNC(=N)N)C(=O)N[C@@H](CCCCN)C(=O)N[C@@H](Cc1ccc(O)cc1)C(=O)N1CCC[C@H]1C(=O)N[C@@H](CCCCN)C(=O)O [α-Neoendrophin] (H-YGGFLRKYPK-OH),95,64,64.6,> 10000,
CSCC[C@H](NC(=O)[C@H](Cc1ccccc1)NC(=O)CNC(=O)CNC(=O)[C@@H](N)Cc1ccc(O)cc1)C(=O)N[C@@H](CCCNC(=N)N)C(=O)N[C@@H](CCCNC(=N)N)C(=O)N[C@H](C(=O)NCC(=O)N[C@@H](CCCNC(=N)N)C(=O)N1CCC[C@H]1C(=O)N[C@@H](CCC(=O)O)C(=O)N[C@@H](Cc1c[nH]c2ccccc12)C(=O)N[C@@H](Cc1c[nH]c2ccccc12)C(=O)N[C@@H](CCSC)C(=O)N[C@@H](CC(=O)O)C(=O)N[C@@H](Cc1ccc(O)cc1)C(=O)N[C@@H](CCC(N)=O)C(=O)O)C(C)C [BAM 18] (H-YGGFMRRVGRPEWWMDYQ-OH),97,85,85.1,> 10000,
CC(C)C[C@H](NC(=O)[C@H](Cc1ccccc1)NC(=O)CNC(=O)CNC(=O)[C@@H](N)Cc1ccc(O)cc1)C(=O)N[C@@H](CCCNC(=N)N)C(=O)O [Dynorphin A(1-6)] (H-YGGFLR-OH),86,,,,
CC[C@H](C)[C@H](NC(=O)[C@H](CCCN=C(N)N)NC(=O)[C@H](CCCN=C(N)N)NC(=O)[C@H](CC(C)C)NC(=O)[C@H](Cc1ccccc1)NC(=O)CNC(=O)CNC(=O)[C@@H](N)Cc1ccc(O)cc1)C(=O)N[C@@H](CCCN=C(N)N)C(=O)O [Dynorphin A(1-9)] (H-YGGFLRRIR-OH),,127,129,> 10000,
CC[C@H](C)[C@H](NC(=O)[C@H](CCCNC(=N)N)NC(=O)[C@H](CCCNC(=N)N)NC(=O)[C@H](CC(C)C)NC(=O)[C@H](Cc1ccccc1)NC(=O)CNC(=O)CNC(=O)[C@@H](N)Cc1ccc(O)cc1)C(=O)N[C@@H](CCCNC(=N)N)C(=O)O [Dynorphin A(1-9)] (H-YGGFLRRIR-OH),93,,,,
CC[C@H](C)[C@H](NC(=O)[C@H](CCCNC(=N)N)NC(=O)[C@H](CCCNC(=N)N)NC(=O)[C@H](CC(C)C)NC(=O)[C@H](Cc1ccccc1)NC(=O)CNC(=O)CNC(=O)[C@@H](N)Cc1ccc(O)cc1)C(=O)N[C@@H](CCCNC(=N)N)C(=O)N1CCC[C@H]1C(=O)N[C@@H](CCCCN)C(=O)N[C@@H](CC(C)C)C(=O)N[C@@H](CCCCN)C(=O)O [Dynorphin A(1-13)],,19,19.5,> 10000,Ki (KORD): 1620 nM; Ki (KOR [2]): 3.16 nM
CC(C)C[C@H](NC(=O)[C@H](Cc1ccccc1)NC(=O)CNC(=O)CNC(=O)[C@@H](N)Cc1ccc(O)cc1)C(=O)N[C@@H](CCCNC(=N)N)C(=O)N[C@@H](CCCNC(=N)N)C(=O)O [Dynorphin A(1-7)],97,,,,
CSCC[C@H](NC(=O)[C@H](Cc1ccccc1)NC(=O)CNC(=O)CNC(=O)[C@@H](N)Cc1ccc(O)cc1)C(=O)N[C@@H](CCCNC(=N)N)C(=O)N[C@@H](CCCNC(=N)N)C(=O)N[C@H](C(=O)NCC(=O)N[C@@H](CCCNC(=N)N)C(=O)N1CCC[C@H]1C(=O)N[C@@H](CCC(=O)O)C(=O)O)C(C)C [BAM 12] (H-YGGFMRRVGRPE-OH),99,101,102,> 10000,
CC[C@H](C)[C@H](NC(=O)[C@H](C)NC(=O)[C@H](CC(N)=O)NC(=O)[C@H](CCCCN)NC(=O)[C@H](Cc1ccccc1)NC(=O)[C@H](CC(C)C)NC(=O)[C@@H](NC(=O)[C@@H](NC(=O)[C@H](CC(C)C)NC(=O)[C@@H]1CCCN1C(=O)[C@@H](NC(=O)[C@H](CCC(N)=O)NC(=O)[C@H](CO)NC(=O)[C@H](CCCCN)NC(=O)[C@H](CCC(=O)O)NC(=O)[C@H](CO)NC(=O)[C@@H](NC(=O)[C@H](CCSC)NC(=O)[C@H](Cc1ccccc1)NC(=O)CNC(=O)CNC(=O)[C@@H](N)Cc1ccc(O)cc1)[C@@H](C)O)[C@@H](C)O)C(C)C)[C@@H](C)O)C(=O)N[C@H](C(=O)N[C@@H](CCCCN)C(=O)N[C@@H](CC(N)=O)C(=O)N[C@@H](C)C(=O)N[C@@H](Cc1ccc(O)cc1)C(=O)O)[C@@H](C)CC [β-Endorphin (1-27)] (H-YGGFMTSEKSQTPLVTLFKNAIIKNAY-OH; N-terminus and C-terminus assumed),100,700,708,> 10000,
"C[N+]1([O-])CCN(C2=Nc3cc(Cl)ccc3Nc3ccccc32)CC1 [CNO, clozapine-N-oxide]",,,,,"light cycle food intake [3]: 0.75 ± 0.03 g; locomotor activity, same session ([4]; dual DREADD mice, 3.0 mg/kg CNO): significant locomotor depression; locomotor activity in control mice ([4]; mCherry in VTA/SN^VGAT neurons, 3.0 mg/kg i.p.): did not affect behavior; locomotor activity vs vehicle ([4]; mice expressing both KORD and hM3Dq in VTA/SN^VGAT neurons, 3.0 mg/kg, different testing sessions): decreased locomotor activity"
CSCC[C@H](NC(=O)[C@H](Cc1ccccc1)NC(=O)CNC(=O)CNC(=O)[C@@H](N)Cc1ccc(O)cc1)C(=O)N[C@@H](CCCNC(=N)N)C(=O)N[C@@H](CCCNC(=N)N)C(=O)N[C@H](C(N)=O)C(C)C [Metorphamide],97,108,102,> 10000,
CSCC[C@H](NC(=O)[C@H](Cc1ccccc1)NC(=O)CNC(=O)CNC(=O)[C@@H](N)Cc1ccc(O)cc1)C(=O)N[C@@H](CCCNC(=N)N)C(=O)N[C@@H](Cc1ccccc1)C(=O)O [Met-enkephalin-Arg-Phe] (H-YGGFMRF-OH),99,,,,
